Assay results taken from patent US4486433A, “Fused-ring amino-pyrazines as bradycardiacs” (Dr. Karl Thomae Gesellschaft mit beschrankter Haftung, priority 1980, dated 1984).

Experiments:
[1] = tested on: postsynaptic α-adrenoreceptos; experiment: Hypertensive activity in the spinal rat; type: in vivo, rats; settings: i.v.
Procedure: 3. Effect on postsynaptic α-adrenoreceptos: Hypertensive activity in the spinal rat
The increase in blood pressure which occurs upon stimulation of postsynaptic α-adrenoreceptos was measured on the spinal rat model.
Male laboratory rats having a body weight of 200-250 gm were anesthetized (1.2 gm/kg urethane i.p., 1 mgm/kg atropine s/c/). Thereafter, the central spinal cord canal was opened, the spinal cord was severed at C1, and the medulla oblongata and the brain were destroyed with a metal sound. Artificial respiration was applied to the animals, and a polyethylene catheter was tied into a jugular vein. The blood pressure was measured in an A. carotis and continuously recorded by means of a Statham element on a Grass polygraph. The test compound was administered i.v. by way of the catheter.
From the raw data thus obtained, the dose of the test compound which increases the arterial blood pressure by 30 mm Hg (D30) was determined.

Acute toxicity in mice = settings: mouse, in vivo, observation time 14 days
Procedure: The acute toxicity was determined in mice after oral or intravenous administration. Observation time: 14 days.

[2] = tested on: presynaptic α-adrenoceptors; experiment: Inhibition of electrically induced tachycardia in the spinal rat; type: in vivo, rats; settings: i.v.
Description: There is an auto-regulation system of the noradrenaline release at the adrenergic nerve ends. The stimulation of presynaptic α-adrenoreceptors has an inhibiting effect upon the noradrenaline release and thus a limiting effect upon the adrenergic neurotransmission. Accordingly, upon stimulation of these "feedback receptors", the effect of a given adrenergic stimulation on the […] is reduced.
Male laboratory rats having a body weight of 350-400 gm were anesthetized with pentobarbital (50 mgm/kg i.p.), vagotomized, treated with atropine (1 mgm/kg s.c.), and a tracheal cannula was inserted. After enucleation of an eye, the orbita was punctured, the brain was destroyed, and a metal rod was pushed through the vertebral canal. Artificial respiration was applied to the animals, and they were pre-treated with gallamine (4 mgm/kg i.v.). […] Upon insertion of the rod into the vertebral canal, this uninsulated section is positioned in the area of the last cervical vertebra and the first thoracic vertebra. With the aid of a stimulator a supramaximal stimulus (rectangular impulses 50 V, 2 ms; 0.2 Hz; duration of stimulus 25 sec.) was applied against a counter-electrode inserted into the neck skin.
The blood pressure was measured in an A. carotis by means of an electro-mechanical pressure transducer. […] Both of these signals were recorded on a polygraph.

[3] = tested on: circulation of intact, anesthetized rats; experiment: Effect upon blood pressure and heart rate in intact, anesthetized rats after intravenous injection; type: in vivo; settings: 3 mg/kg i.v.
Procedure: 1. Effect upon blood pressure and heart rate
The changes in the circulation of intact, anesthetized rats after intravenous injection of the test compound were recorded.
Male laboratory rats having a body weight of 120-360 gm were anesthetized with pentobarbital (70 mgm/kg). The animals breathed spontaneously through a tracheal cannula. The blood pressure was continuously measured in an A. carotis with the aid of an electro-mechanical pressure transducer; the pulse wave triggered a tachograph which continuously recorded the heart rate. Both parameters were plotted on a polygraph. The test compound was injected through a catheter into a V. jugularis.
At a dose of 3 mgm/kg i.v. the test compounds produced an initial increase in the blood pressure of short duration and then a long-lasting decrease in the blood pressure. The decrease in the heart rate was distinct and of long duration.

| Structure (SMILES) | D30 (dose which increases the arterial blood pressure by 30 mm Hg) [1] | LD50 at 336 h (Acute toxicity in mice; iv) | LD50 at 336 h (Acute toxicity in mice; po) | D50 (dose which inhibits the electrically induced tachycardia by 50%) [2] | Blood pressure, depressor phase (maximum value) [3] | Blood pressure, pressor phase (maximum value) [3] | Heart rate reduction (maximum value) [3] |
| --- | --- | --- | --- | --- | --- | --- | --- |
| CCN1CCc2ncc(N)nc2CC1.Cl.Cl [A, 7-Ethyl-2-amino-6,7,8,9-tetrahydro-5H-pyrazino[2,3-d]azepine dihydrochloride] | 480 μgm/kg | 215 mg/kg | 1250 mg/kg | 28 μgm/kg | -20 mm Hg | +61 mm Hg | -116 beats/minute |
| C=CCN1CCc2ncc(N)nc2CC1.Cl.Cl [B, 7-Allyl-2-amino-6,7,8,9-tetrahydro-5H-pyrazino[2,3-d]azepine dihydrochloride] | 2.6 mgm/kg | – | – | – | -20 mm Hg | +40 mm Hg | -122 beats/minute |
| CN1CCc2ncc(N)nc2CC1.Cl.Cl [C, 2-Amino-6,7,8,9-tetrahydro-7-methyl-5H-pyrazino[2,3-d]azepine dihydrochloride] | – | – | – | – | -36 mm Hg | +26 mm Hg | -105 beats/minute |
| CCN1CCc2nc(N)c(Br)nc2CC1.Cl [Compound D, 7-Ethyl-2-amino-3-bromo-6,7,8,9-tetrahydro-5H-pyrazino[2,3-d]azepine hydrochloride] | – | – | – | – | -5 mm Hg | +50 mm Hg | -55 beats/minute |
| CCN1CCc2nc(N)c(Cl)nc2CC1.Cl [E, 7-Ethyl-2-amino-3-chloro-6,7,8,9-tetrahydro-5H-pyrazino[2,3-d]azepine hydrochloride] | – | – | – | – | -11 mm Hg | +32 mm Hg | -70 beats/minute |
| CCN1CCc2nc(C)c(N)nc2CC1.Cl.Cl [F, 7-Ethyl-2-amino-6,7,8,9-tetrahydro-3-methyl-5H-pyrazino-[2,3-d]azepine dihydrochloride] | – | – | – | – | -10 mm Hg | +38 mm Hg | -78 beats/minute |
| CCN1CCc2nc(N)cnc2C1.Cl.Cl [G, 6-Ethyl-2-amino-5,6,7,8-tetrahydro-pyrido[3,4-b]pyrazine dihydrochloride] | 1.4 mgm/kg | – | – | 670 μgm/kg | -41 mm Hg | +6 mm Hg | -145 beats/minute |
| Cl.Nc1cnc2c(n1)CCN(C1CC1)CC2 [H, 2-Amino-7-cyclopropyl-6,7,8,9-tetrahydro-5H-pyrazino[2,3-d]azepine hydrochloride] | – | – | – | – | -28 mm Hg | +51 mm Hg | -110 beats/minute |
